Results reported in patent US12287322B2, “Composition for detecting hydrogen sulfide or measuring hydrogen sulfide concentration and composition comprising same as effective ingredient for diagnosing or imaging in vivo inflammation, tissues having hypoxic damage, or cancer” (SEOUL NATIONAL UNIVERSITY R&DB FOUNDATION, priority 2018, dated 2025).

Experiments:
[1] = tested on: reperfused brain after middle cerebral artery occlusion; experiment: Autoradiography of brain reperfused after middle cerebral artery occlusion; format: in vivo, mouse; conditions: 2 hours occlusion, 12 hours recovery, 1 mCi tail vein, brain extracted after 1 hour, compared with TTC staining, FIG. 11
[2] = tested on: inflamed tissue where hydrogen sulfide was generated (carrageenan hind paw); experiment: SPECT-CT imaging of carrageenan-inflamed tissue where hydrogen sulfide is produced; format: in vivo; conditions: mouse, 300 μCi tail vein 4 hours after 1% carrageenan, SPECT-CT after 1 hour, FIG. 10
Experimental: It has been reported that hydrogen sulfide was generated in the inflamed tissue induced by the administration of carrageenan (Li L, Bhatia M, Zhu Y Z, et al. FASEB J. (2005) 19:1196-1198; Bhatia M, Sidhapuriwala J, Moochhala S M, et al. Br J Pharmacol. (2005) 145:141-144.). Accordingly, the following experiment was performed to confirm whether the imaging of the inflamed tissue where hydrogen sulfide was generated was possible when the ^99mTc-alpha-hydroxy acid according to the present invention was administered.
30 μL of physiological saline containing 1% carrageenan was injected into the right hind paw of a mouse, and 30 μL of physiological saline was injected into the left hind paw of the mouse.

[3] = Reaction of ^99mTc-alpha-hydroxy acid with NO (NONOate), insoluble substances by ITLC; conditions: 0.4 mM NONOate in 0.2 M sodium phosphate buffer pH 7.4, 37° C., 15 minutes
Experimental: (§1) Particularly, the ^99mTc-alpha-hydroxy acid prepared in Example 1 was diluted 5 times with physiological saline, and then 100 μL of each diluent was taken, to which 100 μL of each of 0.2 M sodium phosphate buffer (pH 7.4) containing 0.4 mM NaHS, 4 mM glutathione, 0.4 mM cysteine, 0.4 mM sodium sulfite, 0.4 mM sodium sulfate, 0.4 mM sodium thiosulfate, and 0.4 mM NONOate (NO generating reagent) was added, followed by reaction at 37° C. for 15 minutes. Then, ITLC was developed with physiological saline to determine the percentage of the radioactivity remaining at the origin.

[4] = ^99mTc-alpha-hydroxy acid in phosphate buffer alone, insoluble substances by ITLC; conditions: 0.2 M sodium phosphate buffer pH 7.4 alone, 37° C., 15 minutes
Experimental: as §1

[5] = Reaction of ^99mTc-alpha-hydroxy acid with sodium sulfite, insoluble substances by ITLC; conditions: 0.4 mM sodium sulfite in 0.2 M sodium phosphate buffer pH 7.4, 37° C., 15 minutes
Experimental: as §1

[6] = Reaction of ^99mTc-alpha-hydroxy acid with sodium sulfate, insoluble substances by ITLC; conditions: 0.4 mM sodium sulfate in 0.2 M sodium phosphate buffer pH 7.4, 37° C., 15 minutes
Experimental: as §1

[7] = Reaction of ^99mTc-alpha-hydroxy acid with sodium thiosulfate, insoluble substances by ITLC; conditions: 0.4 mM sodium thiosulfate in 0.2 M sodium phosphate buffer pH 7.4, 37° C., 15 minutes
Experimental: as §1

[8] = Reaction of ^99mTc-alpha-hydroxy acid with cysteine, insoluble substances by ITLC; conditions: 0.4 mM cysteine in 0.2 M sodium phosphate buffer pH 7.4, 37° C., 15 minutes
Experimental: as §1

[9] = Reaction of ^99mTc-alpha-hydroxy acid with glutathione, insoluble substances by ITLC; conditions: 4 mM glutathione in 0.2 M sodium phosphate buffer pH 7.4, 37° C., 15 minutes
Experimental: as §1

[10] = Reaction of ^99mTc-alpha-hydroxy acid with NaHS, insoluble substances by ITLC; conditions: 0.4 mM NaHS in 0.2 M sodium phosphate buffer pH 7.4, 37° C., 15 minutes; radioactivity at origin, ITLC saline
Description: Then, ITLC was developed with physiological saline to determine the percentage of the radioactivity remaining at the origin.

hydrogen sulfide in paw = experiment: Hydrogen sulfide concentration in inflamed area (DMPD/FeCl3, absorbance 665 nm); format: in vivo; conditions: mouse paw, 4 hours after 30 μL 1% carrageenan, n=3
Experimental: In order to confirm that the concentration of hydrogen sulfide in the inflamed area was higher than the concentration of hydrogen sulfide in the normal area, it was measured as follows using a method described in the literature (A D Ang, A Konigstorfer, G I Giles, M Bhatia. Adv Biol Chem, 2012, 2:360-365). After 4 hours, the mouse was euthanized with carbon dioxide gas, and the ankle was cut and the weight was measured. 500 μL of 50 mM sodium carbonate buffer (pH 9) chilled with ice was added thereto and homogenized for 30 seconds gently, 1 minute 30 seconds moderately, and 30 seconds vigorously. After centrifugation at 1200×g for 5 minutes, the supernatant was obtained, to which 400 μL of a mixed solution of 350 μL of 1% zinc acetate and 50 μL of 1.5 M sodium hydroxide was added, followed by mixing well. After centrifugation at 1200×g for 5 minutes, the supernatant was discarded. To the precipitated pellet, 1 mL of distilled water saturated with nitrogen was added, which was mixed by vortexing for 1 minute. After centrifugation at 1200×g for 5 minutes, the supernatant was discarded. […] After reacting at room temperature for 15 minutes, absorbance was measured at 665 nm. A standard quantification curve was drawn with a standard sample measured by the same method, and then quantified.

Compound	distribution of radioactivity in brain sections [1]	radioactivity of the inflamed area versus area administered with physiological saline [2]	percentage of insoluble substances produced after reaction with NO [3]	percentage of insoluble substances produced in Buffer [4]	percentage of insoluble substances produced after reaction with Sodium sulfite [5]	percentage of insoluble substances produced after reaction with Sodium sulfate [6]	percentage of insoluble substances produced after reaction with Thiosodium sulfate [7]	percentage of insoluble substances produced after reaction with Cysteine [8]	percentage of insoluble substances produced after reaction with Glutathione [9]	percentage of insoluble substances produced after reaction with NaHS [10]	concentration of hydrogen sulfide in the paws (hydrogen sulfide in paw)
OC[C@H]1OC(O)[C@H]([18F])[C@@H](O)[C@@H]1O (stereo partly shown) [[^18F] FDG, reference compound]	almost overlapped with the red area stained by TTC	–	–	–	–	–	–	–	–	–	–
O=C1[O][99Tc-]2(=[O])([O]C(=O)C(C(O)C(O)C(O)C(O)CO)[O]2)[O]C1C(O)C(O)C(O)C(O)CO (stereo not shown) [^99mTc-glucoheptonate]	–	clearly higher	–	–	–	–	–	–	–	–	–
O=C1[O][99Tc-]2(=[O])([O]C(=O)[C@@H]([C@@H](O)[C@H](O)[C@H](O)CO)[O]2)[O][C@@H]1[C@@H](O)[C@H](O)[C@H](O)CO [^99mTc-gluconate]	ingested at the boundary area rather than completely dead brain tissues and the normal brain tissues	clearly higher	6.1 ± 1.0%	8.7 ± 1.8%	6.4 ± 0.7%	7.9 ± 1.5%	6.5 ± 1.0%	5.1 ± 0.6%	12.0 ± 2.4%	–	–
^99mTc-citrate	–	–	5.6 ± 0.4%	4.0 ± 0.1%	7.8 ± 0.7%	8.0 ± 0.5%	5.5 ± 0.1%	2.1 ± 0.2%	7.5 ± 1.7%	8.3±1.0%	–
^99mTc-glucarate	–	–	4.7 ± 0.7%	4.6 ± 0.5%	5.5 ± 0.8%	4.6 ± 0.5%	5.6 ± 0.3%	6.4 ± 1.7%	13.4 ± 2.7%	37.0±4.7%	–
carrageenan	–	–	–	–	–	–	–	–	–	–	43.7 ± 3.5 µM
